These results are taken from US7230033B2, “Pest control compositions and methods for their use” (United States of America as represented by the Secretary of …, priority 2000, dated 2007).

For series [1], the system named is ticks, fleas, and mosquitoes. The experiment in a line: Pesticidal activity against all three arthropods, general statements (Examples 9, 17). It is filed as in vivo. To be noted: 24 hours exposure; initial screenings. On the procedure:
Concentrations of the compounds were prepared by 2-fold serial dilutions of a 0.5% (wt:vol) solution of the extracts in acetone (see, e.g., Panella et al., J. Med. Entomol., 42(3):352-358, 2005). The approximate toxicity of individual compounds and compounds in combination was determined with a total of 8 doses ranging from 0.002% to 0.25%. […] A control treated with acetone only was run with each series. Tick and flea susceptibility was evaluated using a modification of the disposable pipette method of Barnard et al. (J. Econ. Entomol., 74:466–69, 1981) and Maupin and Piesman (J. Med. Entomol., 31:319–321, 1994).
(§1) Briefly, groups of 10 nymphal I. scapularis and X. cheopis fleas were used in all tests (more than a total of 5,240 nymphs and 4,860 fleas were exposed to the compounds). The inner surface of 2-dram friction cap vials were treated with the compound/acetone solution, or acetone only as a control, and left to air-dry overnight (see also, Panella et al., J. Med. Entomol., 42(3):352-358, 2005. Three to 4 holes were made in the plastic cap to allow for air exchange. Nymphal ticks and adult fleas were then placed directly into the vials using forceps. Vials containing ticks or fleas were placed in desiccators for 24 h at 21° C. and 90% RH. Morbidity and mortality was recorded at 1, 2, 4, 8, and 24 h after initial exposure.
Adult mosquitoes were tested using the bottle bioassay method of Brogden and McAllister (J. Am. Mosq. Control Assoc., 14:159–64, 1998) with minor modifications. Natural product extracts were two-fold serially diluted for a total of 8 concentrations ranging from 0.002% to 0.25% in 1.5 ml of acetone. Individual dilutions were added to 250 ml Wheaton glass bottles and capped. Bottles were manipulated to evenly coat all inner surfaces. The caps were removed and bottles were allowed to air-dry overnight. […] Morbidity and mortality were recorded at 15, 30, 45, and 60 min and 24 hour intervals. […] The dose-mortality data was evaluated with probit analysis, using the LdP Line software, to determine LC50 and LC90 values.

Series [2] has as its system nymphal Ixodes scapularis. The experiment in a line: Treated-vial biocidal screening with 2% acetone solutions (Example 2), tick nymphs. Type of series: in vivo. The note with it: treated vials sat 72 h; arthropods added for the final 24 h. Here is the method:
(§2) Samples of the compounds listed below were obtained as described in Example 1, and screened for biocidal activities against nymphal Ixodes scapularis. In this example, 2% acetone solutions (wt/vol) of the compounds were applied to inner surfaces of 2-dram friction cap vials. Vials and caps were treated then allowed to dry for a minimum of 4 hours before placing 10 nymphs in each container. These same vials were used to challenge additional nymphs and adult I. scapularis ticks and adult Xenopsylla cheopis fleas through five weeks to observe any possible residual activity.
(§3) Numbers in parentheses refer to length of treatment in terms of hours (h) or weeks (wk). Data is presented in terms of number killed/number tested. For test periods longer than 24 hours, the treated vials were allowed to sit for the stated period after drying (72 h, 4 wk, or 5 wk) and each group of arthropods was added to the vials for the final 24 h of the test period.

The test system of series [3] is adult I. scapularis ticks. The experiment in a line: Treated-vial biocidal screening with 2% acetone solutions (Example 2), adult ticks, residual. The note with it: treated vials sat 4 wk; arthropods added for the final 24 h. Type of series: in vivo, Ixodes scapularis. On the procedure: as §2, §3
In series [4] the test system is adult Xenopsylla cheopis fleas. The series is described as follows: Treated-vial biocidal screening with 2% acetone solutions (Example 2), adult fleas, residual. The note with it: treated vials sat 5 wk; arthropods added for the final 24 h. Type of series: in vivo. Here is the method: as §2, §3
In a further series the test system is I. scapularis nymphs. The series is described as follows: Tick bioassay, treated 2-dram vials, probit analysis. It is filed as in vivo, Ixodes scapularis. The note with it: 24 h exposure; for Slope: probit; for LC50 / LC90: NE = not effective at concentrations tested. The source says: A control treated with acetone only was run with each series.
For each time point, if ticks and fleas were incapable of movement, maintaining normal posture, leg coordination, ability to right themselves, or any signs of life, they were considered moribund or dead.

Another series has as its system X. cheopis adults. The experiment in a line: Flea bioassay, treated 2-dram vials, probit analysis. To be noted: 24 h exposure; for Slope: probit; for LC50: NE = not effective at concentrations tested. Type of series: in vivo, Xenopsylla cheopis. Here is the method: Med. […] A control treated with acetone only was run with each series. Tick and flea susceptibility was evaluated using a modification of the disposable pipette method of Barnard et al. (J. Econ. Entomol., 74:466-69, 1981) and Maupin and […]. Med. […] The inner surface of 2-dram friction cap vials were treated with the compound/acetone solution, or acetone only as a control, and left to air-dry overnight (see also, […] et al., J. Med. […] Three to 4 holes were made in the plastic cap to allow for air exchange. Nymphal ticks and adult fleas were then placed directly into the vials using forceps. […] For each time point, if ticks and fleas were incapable of movement, maintaining normal posture, leg coordination, ability to right themselves, or any signs of life, they were considered moribund or dead.

In a further series the test system is Ae. aegypti adults. The experiment in a line: Adult mosquito bottle bioassay. Type of series: in vivo, Aedes aegypti. The note with it: 24 h exposure; for LC50 / LC90: NE = not effective at concentrations tested; for Slope: probit. Here is the method:
(§4) Adult mosquitoes were tested using the bottle bioassay method of Brogden and McAllister (J. Am. Mosq. Control Assoc., 14:159–64, 1998) with minor modifications. Natural product extracts were two-fold serially diluted for a total of 8 concentrations ranging from 0.002% to 0.25% in 1.5 ml of acetone. Individual dilutions were added to 250 ml Wheaton glass bottles and capped. Bottles were manipulated to evenly coat all inner surfaces. The caps were removed and bottles were allowed to air-dry overnight. Once bottles were completely dry, 10–50 (in some tests 25–50) adult mosquitoes were aspirated into the bottles. Mosquitoes were held in the bottles for 24 h at 23° C. and 85% RH. Morbidity and mortality were recorded at 15, 30, 45, and 60 min and 24 hour intervals. One bottle for each replicate was treated with acetone only and served as a control. The dose-mortality data was evaluated with probit analysis, using the LdP Line software, to determine LC50 and LC90 values.
Carvacrol was combined with compound 7, 9, or 10 at a 1:1 ratio (7.5 μl of carvacrol:7.5 μl of compound 7, 9, or 10 was added to 2,985 μl of acetone for a 0.5% solution, from which serial dilutions were made), and tested as previously described against nymphal ticks and adult and larval mosquitoes.

The next series relates to Ixodes scapularis nymphs. The series is described as follows: Residual activity, aged treated vials, ticks. It is filed as in vivo. The note with it: 1 week after treatment. On the procedure:
as §1

The subject of the next series is Aedes aegypti adults. The experiment in a line: Residual activity, aged treated bottles, mosquitoes. Type of series: in vivo. To be noted: 1 week after treatment. On the procedure: as §4
Series [5] has as its system ticks, fleas, and mosquitoes. The series is described as follows: Residual activity, general statements (Examples 9, 17). Type of series: in vivo. To be noted: ticks.
Series [6] relates to ticks, fleas and mosquitoes. The experiment in a line: Example 2 bioassay, qualitative comparison on ticks, fleas and mosquitoes (Examples 4, 6). Type of series: in vivo. Here is the method:
as §2
Nootkatol was tested using the bioassay presented in Example 2.
Two nootkatone samples were compared to nootkatone isolated from Alaska yellow cedar using the method presented in Example 1. The first sample was a natural extract of nootkatone taken from grapefruit oil purchased commercially. The second sample was a synthetically produced nootkatone purchased commercially.
Both samples were compared to the nootkatone originating from Alaska yellow cedar in terms of their biocidal activities. Using a bioassay method similar to that presented in Example 2, no qualitative differences were discernible among the nootkatone samples in terms of their biocidal effect on ticks, fleas and mosquitoes.

For series [7], the system named is Ixodes scapularis nymphal ticks. The series is described as follows: Tick repellency bioassay. It is filed as in vivo. To be noted: combinations 1:1 by weight. The source says: One-hundred (100) μl of test compound was pipetted onto a cotton-tipped applicator mounted to the bottom center of a 1 dram glass shell vial using non-toxic modeling clay. A total of 8 concentrations were screened with doses ranging from 0.04–5.0%. Applicators treated with acetone only served as controls. A line was drawn around the perimeter of the vial immediate to the base of the treated cotton portion of the applicator. The area above the line was designated the “repellent zone”. The vial was allowed to air-dry 1 h before a single tick was introduced. Vials were covered with a single piece of mesh and fitted with a hollowed-out plastic cap to cover the opening of the vial; this prevented the tick from escaping but allowed for air exchange. Vials were breathed upon by investigators at 1 min intervals and a hand was placed over the test vials to provide stimuli for ticks to pass into the repellent zone. […] If the tick crossed over and remained in the “repellent zone” for ≧5 sec, the tick was deemed non-repelled by the test compound. Each test was replicated 10 times using a new tick for each test. Repellent activity was determined at 1, 2, 3, and 4 h after treatment. Probit analysis was used to determine repellent efficacy (RD50 and RD95).

Series [8] has as its system ticks, fleas, formicids and termites. The series is described as follows: Persistence of biocidal activity in vials treated with 2% solutions (Example 5). Type of series: in vivo. The note with it: at 11 weeks. Here is the method: as §2
Persistence of biocidal activity was determined for nootkatone and valencene-11,12-epoxide by using the vials as treated with the 2% solutions of Example 2. This bioassay employed groups of ticks, fleas, formicids and termites using a method similar to that described in Example 2. […] At 11 weeks, the biocidal activity began to dissipate below the 100% mortality level.

Consider `CC1=CCC2C(C1)C2(C)C` (centres unmarked) [Compound 1, 3-Carene], for which, in series [1], the pesticidal activity result is listed as “no pesticidal activity”.

Take `CC1=CCC(O)(C(C)C)CC1` (centres unmarked) [Compound 2, Terpinen-4-ol]: the pesticidal activity result in series [1] was “no pesticidal activity”.

Turning to `COc1cc(C(C)C)ccc1C` [Compound 3, Methyl carvacrol], the pesticidal activity result in [1] is “no pesticidal activity”.

Turning to `C=C(C)[C@@H]1CCC2=CCC[C@@H](C)[C@]2(C)C1` [Compound 5, Valencene], the “I. scapularis nymphs (72 h), number killed/number tested” value in series [2] was 0/5. Further, in [3], the “I. scapularis adults (4 wk), number killed/number tested” value is 0/5. Moreover, in series [4], the “X. cheopis adults (5 wk), number killed/number tested” value is 0/5. The same molecule registered a Slope in the series with I. scapularis nymphs of 0.684. Also, the Slope in the series on X. cheopis adults was 6.925. Further, in the series on Ae. aegypti adults, the LC50 is 0.015 percent concentration, wt:vol; the LC90 is 0.037 percent concentration, wt:vol; the Slope worked out at 3.199.

Take `C=C(C)C1CC=C2C=CCC(C)C2(C)C1` (centres unmarked) [Compound 6, Nootkatene]: the “I. scapularis nymphs (72 h), number killed/number tested” value in [2] was 4/5. The “I. scapularis adults (4 wk), number killed/number tested” value in series [3] is given as 0/5. Moreover, the “X. cheopis adults (5 wk), number killed/number tested” value in series [4] is 0/5. In addition, in the series with I. scapularis nymphs, the LC50 was 0.011 percent concentration, wt:vol; the LC90 is on record as 0.06 percent concentration, wt:vol; the Slope is recorded as 1.763. For the same molecule, in the series with X. cheopis adults, the LC50 was 0.017 percent concentration, wt:vol and the Slope was determined as 2.022. Further, in the series on Ae. aegypti adults, the LC50 is on record as 0.027 percent concentration, wt:vol and the Slope came out at 3.696. Also, the “Slope, residual activity” value in the series on Ixodes scapularis nymphs worked out at 0.533. Moreover, in the series on Aedes aegypti adults, the “LC90, residual activity” value is on record as 0.659 percent concentration, wt:vol and the “Slope, residual activity” value is 1.833. Also, in series [5], the residual activity result is given as “did not demonstrate any residual activity after one week”.

In the case of `C=C(C)[C@@H]1CCC2=C[C@@H](O)C[C@@H](C)[C@]2(C)C1` [Compound 12, Nootkatol], in series [6], the “biocidal activity compared with nootkatene” value was “essentially equivalent to the activity of nootkatene”. Besides, the LC50 in the series on I. scapularis nymphs is on record as 0.023 percent concentration, wt:vol; in the series on X. cheopis adults, 0.024 percent concentration, wt:vol; in the series with Ae. aegypti adults it was 0.004 percent concentration, wt:vol. Moreover, the LC90 with I. scapularis nymphs is listed as 0.059 percent concentration, wt:vol; in the series on Ae. aegypti adults it was 0.01 percent concentration, wt:vol. For the same molecule, the Slope in the series on I. scapularis nymphs stood at 3.069; in the series with X. cheopis adults, 2.101; with Ae. aegypti adults, 3.201. Also, the figures for the RD50 in [7] (1 hr) and in series [7] (4 hr) were 0.047 % (w/v) and 0.320 % (w/v), respectively.

In turn, `C[C@@H]1CCC=C2CCC(C3(C)CO3)C[C@]21C` (some centres unmarked) [Compound 13, valencene-11,12-epoxide] gave a mortality level in series [8] of less than 100%. Further, in the series on I. scapularis nymphs, the LC50 was 21.219 percent concentration, wt:vol; the LC90 was 3713.114 percent concentration, wt:vol; the Slope is on record as 0.571. In the series on Ae. aegypti adults, this molecule gave a Slope of 1.581.
